Experimental data from PubChem BioAssay AID403 (SGCOxCompounds, 2006).

Biological target: Receptor-type tyrosine-protein phosphatase eta (Homo sapiens) (UniProt Q12913)
Assay: PTPRJ phosphatase inhibitors, biochemical, human, DiFMUP fluorescence (AID 403)
Details: recombinant PTPRJ, 25 C, at 50 µM, enzyme 0.05 ng/mL, DTT 5 mM, active compounds read high

Chain of Receptor-type tyrosine-protein phosphatase eta (Homo sapiens) (Q12913 whole entry, looked up): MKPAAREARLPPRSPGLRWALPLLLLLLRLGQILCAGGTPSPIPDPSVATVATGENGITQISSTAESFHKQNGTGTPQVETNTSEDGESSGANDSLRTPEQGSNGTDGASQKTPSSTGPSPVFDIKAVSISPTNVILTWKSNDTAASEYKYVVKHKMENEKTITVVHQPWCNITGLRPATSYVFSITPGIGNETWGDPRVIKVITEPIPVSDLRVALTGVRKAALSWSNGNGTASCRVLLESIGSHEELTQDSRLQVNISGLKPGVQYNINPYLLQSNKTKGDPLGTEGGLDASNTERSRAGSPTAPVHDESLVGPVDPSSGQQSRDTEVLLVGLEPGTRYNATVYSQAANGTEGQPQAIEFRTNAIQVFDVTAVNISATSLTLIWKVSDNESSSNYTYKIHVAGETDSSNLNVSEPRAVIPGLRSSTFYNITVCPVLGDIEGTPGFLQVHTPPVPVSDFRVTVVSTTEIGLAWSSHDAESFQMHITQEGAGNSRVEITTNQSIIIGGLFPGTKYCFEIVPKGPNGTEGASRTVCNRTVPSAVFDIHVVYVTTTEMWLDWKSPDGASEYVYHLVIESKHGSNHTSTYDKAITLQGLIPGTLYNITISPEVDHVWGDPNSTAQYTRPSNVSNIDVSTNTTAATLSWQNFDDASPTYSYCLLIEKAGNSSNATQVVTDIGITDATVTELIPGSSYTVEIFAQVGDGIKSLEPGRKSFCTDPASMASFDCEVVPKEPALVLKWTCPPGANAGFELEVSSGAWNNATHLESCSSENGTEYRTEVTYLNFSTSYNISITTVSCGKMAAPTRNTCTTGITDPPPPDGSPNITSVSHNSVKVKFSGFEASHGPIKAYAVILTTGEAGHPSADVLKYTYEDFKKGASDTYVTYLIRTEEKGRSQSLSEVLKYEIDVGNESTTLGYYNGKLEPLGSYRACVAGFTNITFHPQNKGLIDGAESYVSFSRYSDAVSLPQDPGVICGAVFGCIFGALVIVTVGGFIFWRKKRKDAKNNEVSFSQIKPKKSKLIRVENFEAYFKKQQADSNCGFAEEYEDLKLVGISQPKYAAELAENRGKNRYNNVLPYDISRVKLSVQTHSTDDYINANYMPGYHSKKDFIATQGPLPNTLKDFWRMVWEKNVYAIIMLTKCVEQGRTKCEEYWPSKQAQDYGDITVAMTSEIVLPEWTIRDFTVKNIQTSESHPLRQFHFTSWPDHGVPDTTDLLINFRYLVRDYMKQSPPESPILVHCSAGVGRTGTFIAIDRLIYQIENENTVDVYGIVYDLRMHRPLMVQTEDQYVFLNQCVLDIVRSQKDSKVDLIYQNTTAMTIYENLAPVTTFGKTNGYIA

Going from `O=C(O)c1ccc(O)c(N2C(=O)Nc3ccccc3N2O)c1` to `Cc1ccc(N=Cc2cc(C(=O)O)ccc2O)c(O)c1`, the inhibition falls from 82% to 55%.

First: O=C(O)c1ccc(O)c(C=Nc2ccc3oc(-c4ccccc4)nc3c2)c1
Second: COc1ccc(-c2nc3cc(N=Cc4cc(C(=O)O)ccc4O)ccc3o2)cc1
The inhibition of the first is lower: 52% for the first, 67% for the second.

Going from `OO.OO.[K+].[O]=[V].c1ccc(-c2ccccn2)nc1` to `O=C([O-])c1ccccn1.OO.OO.[K+].[K+].[O]=[V]`, the inhibition rises from 98% to 100%.

Going from `[NH-]CO.[NH-]CO.[NH-]CO.[NH-]CO.[O]=[V][O][V]=[O]` to `O=C(O)c1ccc(O)cn1.OO.[O]=[V]`, the inhibition falls from 100% to 92%.

Compared with `Cc1c(Cl)c(C)c([N+](=O)[O-])c(O)c1C=Nc1ccc(O)cc1C(=O)O`, `O=C(O)c1ccc([O-])cn1.OO.OO.[K+].[K+].[O]=[V]` is higher in inhibition: 95% for the first, 99% for the second.

Going from `CC(C)(c1ccc(NS(=O)(=O)C(F)(F)F)cc1)c1ccc(C(C)(C)c2ccc(NS(=O)(=O)C(F)(F)F)cc2)cc1` to `CN(N=O)c1ccc(O)c(O)c1`, the inhibition rises from 66% to 97%.

For `O=C1NC(=S)S/C1=C\C=C\c1ccc([N+](=O)[O-])o1`, the inhibition was 50%.
